Source: patent US20120053123A1, “NATRIURETIC POLYPEPTIDES HAVING MUTATIONS WITHIN THEIR DISULFIDE RINGS” (priority 2009, published 2012)

Key:
[1] = tested on: vascular smooth muscle cells; assay: Proliferation of vascular smooth muscle cells in culture (BrdU); type: cell-based; conditions: 10^-5 M to 10^-8 M; for ABC-NP and ABC-NP1 all concentrations about the same effect, FIG. 21
Source text: FIG. 21 is a graph plotting levels of proliferation of vascular smooth muscle cells after treatment with 10^−5 M, 10^−6 M, 10^−7 M, or 10^−8 M ANP, BNP, CNP, ABC-NP, or ABC-NP1, measured by assessing bromodeoxyuridine (BrdU) levels.

[2] = after administration to a mammal; cited from earlier work
normal anesthetized dogs = assay: Cardiorenal and humoral actions of intravenous bolus in normal anesthetized dogs; type: in vivo, dog; conditions: i.v. bolus 25 microgram/Kg; for reduction in right atrial pressure (RAP) / reduction in pulmonary capillary wedge pressure (PCWP): ABC-NP1 compared with ABC-NP; for reduction in right atrial pressure (RAP): FIG. 6; for reduction in pulmonary capillary wedge pressure (PCWP): FIG. 7; for urine flow (UV), diuresis: n=5, FIG. 3; for urinary sodium excretion (UNaV), natriuresis: n=5, FIG. 4; for mean arterial blood pressure (MAP): n=5, FIG. 5
Method: (§1) Cardiorenal and humoral actions of intravenous bolus administration of ABC-NP1 (n=5) and ABC-NP (n=5) at 25 microgram/Kg were evaluated in two separate groups of normal anesthetized dogs. The cGMP response of both peptides also was assessed in HAEC, HCF, and isolated canine glomeruli.

[3] = tested on: human cardiac fibroblasts (HCF); assay: cGMP generation in cultured human cardiac fibroblasts (HCF); type: cell-based; conditions: FIG. 8, p<0.05
Source text: (§2) Variant NPs having conservative and/or non-conservative substitutions (e.g., with respect to any of SEQ ID NOS:1 to 51), as well as fragments of any of SEQ ID NOS:1 to 51, fragments of variants of any of SEQ ID NOS:1 to 51, and polypeptides comprising any of SEQ ID NOS:1 to 51, variants or fragments of any of SEQ ID NOS:1 to 51, or fragments of variants of any of SEQ ID NOS:1 to 51, can be screened for biological activity using any of a number of assays, including those described herein. For example, the activity of a NP as described herein can be evaluated in vitro by testing its effect on cGMP production in cultured cells (e.g., cultured cardiac fibroblasts, aortic endothelial cells, or glomerular cells, as described in the Example herein). Cells can be exposed to a NP (e.g., 10^−9 to 10^−4 M NP), and samples can be assayed to evaluate the NP effects on cGMP generation. cGMP generation can be detected and measured using, for example, a competitive RIA cGMP kit (Perkin-Elmer, Boston, Mass.).
as §1

[4] = tested on: isolated canine glomeruli; assay: cGMP generation in isolated canine glomeruli; type: cell-based; conditions: comparison between the two peptides, FIG. 10
Source text: A NP as provided herein can function through one or more of the guanylyl cyclase receptors through which the native NPs function. For example, in some embodiments, a NP as provided herein can bind to and function through the NPR-A receptor through which ANP and BNP function. In some cases, a NP as provided herein can function through the NPR-B receptor through which CNP functions. Further, in some cases, a NP as provided herein can bind to and function through more than one guanylyl cyclase receptor, including NPR-A and NPR-B, for example. Methods for evaluating which receptor is involved in function of a particular NP are known in the art. For example, glomeruli, which contain both NPR-A and NPR-B, can be isolated (e.g., from a laboratory animal such as a dog) and incubated with a NP (e.g., a native, chimeric, or mutated NP), and cGMP levels can be measured. Glomeruli can be pretreated with antagonists of NPR-A or NPR-B to determine whether cGMP production stimulated by a NP through one or the other receptor can be attenuated.
as §1

[5] = tested on: human aortic endothelial cells (HAEC); assay: cGMP generation in cultured human aortic endothelial cells (HAEC); type: cell-based; conditions: FIG. 9, p<0.05
Source text: as §2, §1

[6] = tested on: dogs with rapid ventricular pacing-induced overt heart failure with cardiorenal dysfunction; assay: Cardiorenal and humoral actions of intravenous infusions in dogs with pacing-induced overt heart failure; type: in vivo, dog; conditions: for RAP: all doses (2, 10 and 100 pmol/kg/minute), FIG. 13; for MAP: FIG. 12; for PCWP: FIG. 14; for urinary sodium excretion (UNaV) / urine flow (UV): increasing doses 2, 10, 100 pmol/kg/minute; for glomerular filtration rate (GFR): FIG. 17; for renal blood flow: FIG. 18
Method: The cardiorenal and humoral actions of intravenous infusions of ABC-NP and ABC-NP1 at 2, 10, and 100 pmol/kg/minute were examined in seven dogs with rapid ventricular pacing-induced overt heart failure with cardiorenal dysfunction (240 bpm for 10 days). As shown in the study protocol depicted in FIG. 11, baseline values for MAP, RAP, PCWP, UNaV, UV, GFR, renal blood flow, urinary cGMP excretion, plasma and cGMP were measured, and animals were then infused with 2 pmol/kg/minute ABC-NP or ABC-NP1 for a lead in period of 15 minutes followed by 30 minutes, then infusion with 10 pmol/kg/minute ABC-NP or ABC-NP1 for a lead in period of 15 minutes followed by 30 minutes, and finally infusion with 100 pmol/kg/minute ABC-NP or ABC-NP1 for a lead in period of 15 minutes followed by 30 minutes, and washout for 30 minutes. Pressure measurements were taken at the end of each NP infusion period, and blood and urine samples also were collected for analysis.

[7] = previously shown, cited from earlier work
[8] = HF dogs, highest dose (100 pmol/kg/minute), FIG. 19
[9] = HF dogs, highest dose (100 pmol/kg/minute), FIG. 20
[10] = HF dogs, i.v. infusion, highest dose (100 pmol/kg/minute)
[11] = HF dogs, two highest doses (10 and 100 pmol/kg/minute)

Compound	proliferation of vascular smooth muscle cells (BrdU levels) [1]	reduction in right atrial pressure (RAP) (normal anesthetized dogs)	reduction in pulmonary capillary wedge pressure (PCWP) (normal anesthetized dogs)	urine flow (UV), diuresis (normal anesthetized dogs)	urinary sodium excretion (UNaV), natriuresis (normal anesthetized dogs)	mean arterial blood pressure (MAP) (normal anesthetized dogs)	cGMP generation [3]	cGMP generation [4]	cGMP generation [5]	urinary cGMP excretion [6, 8]	plasma cGMP [6, 9]	RAP ([6]; HF dogs, i.v. infusion)	urinary sodium excretion (UNaV) ([6]; HF dogs, FIG. 15)	urine flow (UV) ([6]; HF dogs, FIG. 16)	further results
CC[C@H](C)[C@@H]1NC(=O)[C@H](CCCNC(=N)N)NC(=O)[C@H](CC(=O)O)NC(=O)[C@H](CCSC)NC(=O)[C@H](CCCNC(=N)N)NC(=O)CNC(=O)CNC(=O)[C@H](Cc2ccccc2)NC(=O)[C@@H](NC(=O)[C@H](CO)NC(=O)[C@H](CO)NC(=O)[C@H](CCCNC(=N)N)NC(=O)[C@H](CCCNC(=N)N)NC(=O)[C@H](CC(C)C)NC(=O)[C@@H](N)CO)CSSC[C@@H](C(=O)N[C@@H](CC(N)=O)C(=O)N[C@@H](CO)C(=O)N[C@@H](Cc2ccccc2)C(=O)N[C@@H](CCCNC(=N)N)C(=O)N[C@@H](Cc2ccc(O)cc2)C(=O)O)NC(=O)CNC(=O)[C@H](CC(C)C)NC(=O)CNC(=O)[C@H](CO)NC(=O)[C@H](CCC(N)=O)NC(=O)[C@H](C)NC(=O)CNC1=O [ANP, atrial natriuretic peptide]	decreased as the concentration decreased														
B-type natriuretic peptide [BNP]	decreased as the concentration decreased														
C-type natriuretic peptide [CNP]	decreased as the concentration decreased														half-life [2]: about a minute and a half
RMDRIGLSKGCFGLKLDRIGSMSGLGCKVLRRH [ABC-NP1]	reduced proliferation	significantly greater	significantly greater	resulted in diuresis	natriuresis	significant decrease	significantly higher	similar	significantly higher	significantly increased	significantly increased	significantly reduced	increasing effects	increasing effects	effect on UNaV relative to ABC-NP ([6]; HF dogs, ABC-NP1 vs ABC-NP, FIG. 15): 5- to 6.5 fold; effect on UV relative to ABC-NP ([6]; HF dogs, ABC-NP1 vs ABC-NP, FIG. 16): 1.5- to 2 fold; effect on urinary cGMP excretion relative to ABC-NP ([6]; HF dogs, highest dose, ABC-NP1 vs ABC-NP, FIG. 19): about a two-fold greater effect; effect on plasma cGMP relative to ABC-NP ([6]; HF dogs, highest dose, ABC-NP1 vs ABC-NP, FIG. 20): about a two-fold greater effect; MAP [6, 10]: significantly reduced; PCWP [6, 10]: significantly reduced; glomerular filtration rate (GFR) [6, 11]: significant increases; renal blood flow [6, 11]: significant increases; renal excretory actions ([7]; result of N- and C-terminal alterations): potent renal excretory actions; cardiac actions ([7]; similar to CNP): cardiac unloading actions; hypotensive effects ([7]; similar to CNP): mild hypotensive effects
RMDRIGLSKGCFGLKLDRIREASGLGCKVLRRH [ABC-NP, ANP residues 11-15, mutated CNP in which GSM15-17 were changed to REA, and six C-terminal amino acids of BNP]	reduced proliferation	reduction	reduction	resulted in diuresis	natriuresis	no change	minimal	similar	minimal	significantly increased	significantly increased	increased	increasing effects	increasing effects	glomerular filtration rate (GFR) ([6]; HF dogs, 2, 10, 100 pmol/kg/minute, significant increase only at highest dose): significance was not achieved with ABC-NP until the highest dose was used; renal blood flow ([6]; HF dogs, 2, 10 and 100 pmol/kg/minute): no effect; MAP ([6]; HF dogs, i.v. infusion 2, 10 and 100 pmol/kg/minute): no effect; PCWP ([6]; HF dogs, i.v. infusion, higher doses (10 and 100 pmol/kg/minute)): did not affect; PCWP ([6]; HF dogs, i.v. infusion, lowest dose (2 pmol/kg/minute), vs baseline): reduced PCWP as compared to baseline
